Molecules are shown by their SMILES.

The subject of assay [1] is TRF2 binding to telomere DNA. Briefly: DNA ChIP assay of TRF2 binding to telomere DNA in LOX cells. Format: cell-based, human. The conditions noted are these: 2 μM, 2 days. On the procedure: The lysates were sonicated, cleared by centrifugation, and supernatants were diluted 10 fold into IP Buffer (0.01% SDS, 1.1% Triton X-100, 1.2mM EDTA, 16.7mM Tris pH 8.1, 167mM NaCl, protease inhibitors cocktail, 50U/ml SUPERase•in) for IP reaction with rabbit IgG (Santa Cruz Biotechnology) or rabbit polyclonal anti-TRF2 (Pocono Rabbit Farm) at 4 ° C overnight. Each immune complex was collected by Dynal A beads (Invitrogen), washed five times (1 ml wash, 10 mins each) in ChIP related wash buffer at 4 ° C, eluted by addition of 200µl Elution buffer (10mM Tris, pH 8.0, 5mM EDTA, 1% SDS, 50U/ml SUPERase.In) at 70 °C for 20 mins, and the elutes were placed at 70 °C for 2 hrs to reverse cross-linking. […]
DNA ChIP assays was performed as described previously 3 with minor modifications. Briefly, 1 x 10^7 LOX cells treated with indicated chemicals (2 µM) for 48 hrs were subject to ChIP analysis and immunoprecipitated DNA was assayed by DNA dot-blot using 32P-labeled (TTAGGG)4 or Alu probe. […]

The target of another assay is TeloDNA and TRF2 complex. Briefly: FP inhibition assay, TRF2 GAR binding to TeloDNA. The following applies: 10 nM peptide, 5 μM oligo. As for the experimental part: All the nucleic acids, peptides and chemicals were dissolved in buffer containing 20 mM HEPES pH7.5, 150 mM salt (KCl, NaCl, LiCl) at the stock concentration of 1 mM. For peptide and nucleic acid interactions, 25μL of each nucleic acids with a sequential twofold dilutions starting from 50 μM was added into each well of 96-well plate followed by adding 25μL of 10 nM FITC labeled TRF2 peptide. For compounds and nucleic acid interactions, 20μL of each compounds with a sequential twofold dilutions starting from 50 μM were added into each well of 96-well plate followed by adding 5μL of 20 ng/mL tRNA and 25μL of 10 nM FAM labeled nucleic acids. For inhibition assay, 5μL FITC labeled TRF2 GAR peptide (10 nM final concentration) and 10 μL oligos (5 μM final concentration) were mixed, followed by adding 5μL of each compound with a sequential twofold dilutions starting from 50 μM into each well of 384-well plate. All components were mixed thoroughly, and the plate was incubated at room temperature for 1 h before placing in an Envision Plate Reader for reading at 495/520 nm. All data curves were fitted using Prism 8.0.

Another assay has as its system TERRA in LOX cells. Briefly: TERRA levels by RNA dot blot and Northern blot in LOX cells. In kind it is cell-based, human. The conditions noted are these: 2 μM, 3 days; for accumulation of TERRA as a shorter form: Northern blot.
Assay [2] deals with TeloDNA antisense (5'-fluorescein) (DNA, single strand) CCCTAACCCTAACCCTAACCCTAA
Briefly: fluorescence polarization. The conditions noted are these: 150 mM salt (KCl, NaCl or LiCl; which not stated); 20 mM HEPES pH 7.5, room temperature, tRNA competitor; dilutions from 50 μM compound. In general terms: Fluorescence polarisation rises when a labelled molecule tumbles more slowly, as on binding a larger partner.

The subject of assay [3] is telomere repeat DNA in LOX cells. Briefly: Telomere length analysis (PFGE, Southern blot) of LOX cells. In kind it is cell-based, human. The conditions noted are these: for telomere repeat DNA signals: TLA. As for the experimental part:
Genomic DNA was isolated from cells using a genomic DNA purification kit (Promega) and digested with AluI and MboI. Digested genomic DNA was purified by phenol/choloroform extraction and quantified using a Qubit 4 Fluorometer (Thermal Scientific). Equal amounts of digested DNA (5 μg) were separated by pulse-field gel electrophoresis (PFGE) performed with a 1% agarose gel at 6V/cm, switch times from 1 to 12s, 15 °C for 12h using CHEF-DRIII system (Bio-Rad). The DNA was transferred to GeneScreen Plus blotting membranes (Perkin-Elmer) and analyzed by Southern blot. The blots were hybridized with a 32P-labeled telomere repeat or […]
Alu probe at 42 °C overnight, then washed twice for 5 min each with 0.2 M wash buffer (0.2 M Na2HPO4 pH 7.2, 1 mM EDTA, and 2% SDS) at room temperature and once for 10 min with 0.1 M wash buffer at 42°C. Relative telomere-repeat signals were determined by Typhoon 9410 Imager and ImageQuant TL software (GE Healthcare). Signal intensity represents the percentage decrease of average telomere signals relative to dox (-) or PP control. […]
100, 1 mM EDTA in 1x PBS) before immuno-staining. Primary antibodies were prepared in blocking solution at following dilutions: anti-53BP1 (1:500, IHC-00001; Bethyl Laboratories) and γH2AX (1:2,000, A300-081A; Bethyl Laboratories). After IF, cells were fixed in 4% paraformaldehyde in 1x PBS for 10 min, washed in 1x PBS, dehydrated in ethanol series (70%, 95%, 100%), and air-dried. Coverslips were denatured for 5 min at 80-85° C in hybridization mix [70% formamide, 10 mM Tris-HCl, pH 7.2, and 0.5% blocking solution (Roche)] containing telomeric PNA-Cy3-(CCCTAA)3 probe, and hybridization was continued for 2 hrs at room temperature in the dark moisturized chambers. Coverslips were washed twice for 15 min each with 70% formamide, 10 mM Tris-HCl (pH 7.2), and 0.1% BSA, and followed by three washes for 5 min each with 0.15 M NaCl, 0.1 M Tris-HCl (pH 7.2), and 0.08% Tween-20. Nuclei were counterstained with 0.1 µg/ml DAPI in blocking solution and coverslips mounted with VectorShield (Vector Laboratories). RNA FISH was performed as previously described 1.
Images were captured with a 100x lens on a Nikon E600 Upright microscope (Nikon

Assay [4] has as its system TERRA (unlabelled) (RNA, G4) UUAGGGUUAGGGUUAGGGUUAGGG
Briefly: fluorescence polarization, displacement of TRF2 GAR peptide. The following applies: 150 mM KCl, NaCl or LiCl (salt not specified); 20 mM HEPES; 20 mM HEPES pH 7.5, room temperature; FITC-TRF2 GAR peptide 10 nM displaced; 5 μM oligo.

`CCc1c(C)c2cc3nc(cc4nc(cc5c(CC)c(C)c(cc1[nH]2)n5C)C(C)=C4CCC(=O)O)C(CCC(=O)O)=C3C` [NMM, N-methyl mesoporphyrin IX]: in assay [1], the “effect on TRF2 binding to telomere DNA” value was “Neither NMM, PP, nor BRACO-19 had any significant effect”. Besides, the IC50 (in general, the concentration that inhibits the measured activity by half) at TeloDNA and TRF2 complex turned out to be 1000 nM; in assay [4] it was 420 nM. Besides, the “accumulation of TERRA as a shorter form” value with TERRA in LOX cells is “accumulated as a shorter form”. The “total TERRA levels relative to PP control” value in the assay with TERRA in LOX cells (RNA dot blot and Northern blot) is listed as “reduced total TERRA levels”. Moreover, in assay [2], the binding entry was “no”. The average telomere length result in assay [3] (2 μM, 2 and 3 days) is listed as “decrease in average telomere length”. Besides, the “telomere repeat DNA signals” value in assay [3] is reported as “reduced telomere repeat DNA signals”.
For the compound `CN(C)c1ccc(Nc2c3ccc(NC(=O)CCN4CCCC4)cc3nc3cc(NC(=O)CCN4CCCC4)ccc23)cc1` [BRACO-19], the “effect on TRF2 binding to telomere DNA” value in assay [1] is reported as “Neither NMM, PP, nor BRACO-19 had any significant effect”. Further, the half-maximal inhibitory concentration (IC50) at TeloDNA and TRF2 complex is 40 nM; in assay [4], 240 nM. In addition, the “accumulation of TERRA as a shorter form” value in the assay with TERRA in LOX cells is given as “not observed”. Further, the binding result in assay [2] was “no”. Also, in assay [3], the “telomere repeat DNA signals” value is “to a lesser extent”.
